Laboratory results reported in ChEMBL document CHEMBL3039007, “Structure-based identification of OATP1B1/3 inhibitors” (Mol Pharmacol, 2013).

Key:
[1] = target: T1, Solute carrier organic anion transporter family member 1B3 (Homo sapiens, UniProt Q9NPD5); conditions: chinese hamster, cho, 10 µM
T1 sequence (Q9NPD5 whole entry): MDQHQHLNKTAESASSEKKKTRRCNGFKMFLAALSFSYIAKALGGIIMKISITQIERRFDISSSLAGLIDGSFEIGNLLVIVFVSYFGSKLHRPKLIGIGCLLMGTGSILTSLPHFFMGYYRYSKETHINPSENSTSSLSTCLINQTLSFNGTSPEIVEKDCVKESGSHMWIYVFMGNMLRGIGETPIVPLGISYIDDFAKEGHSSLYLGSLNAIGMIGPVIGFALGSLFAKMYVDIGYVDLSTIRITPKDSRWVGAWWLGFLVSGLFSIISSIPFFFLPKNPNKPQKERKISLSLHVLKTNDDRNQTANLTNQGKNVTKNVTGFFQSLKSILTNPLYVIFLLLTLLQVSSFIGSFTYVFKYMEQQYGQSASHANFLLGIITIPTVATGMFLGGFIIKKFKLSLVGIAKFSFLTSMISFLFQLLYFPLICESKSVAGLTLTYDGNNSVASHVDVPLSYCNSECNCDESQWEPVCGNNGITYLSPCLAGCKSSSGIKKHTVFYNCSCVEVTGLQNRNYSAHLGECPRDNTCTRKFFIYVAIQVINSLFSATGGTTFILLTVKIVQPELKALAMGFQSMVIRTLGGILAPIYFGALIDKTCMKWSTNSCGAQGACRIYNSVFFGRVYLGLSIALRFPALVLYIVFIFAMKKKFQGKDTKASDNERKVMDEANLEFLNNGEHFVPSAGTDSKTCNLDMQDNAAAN

[2] = target: T2, Solute carrier organic anion transporter family member 1B1 (Homo sapiens, UniProt Q9Y6L6); conditions: chinese hamster, cho, 10 µM
T2 sequence (Q9Y6L6 whole entry): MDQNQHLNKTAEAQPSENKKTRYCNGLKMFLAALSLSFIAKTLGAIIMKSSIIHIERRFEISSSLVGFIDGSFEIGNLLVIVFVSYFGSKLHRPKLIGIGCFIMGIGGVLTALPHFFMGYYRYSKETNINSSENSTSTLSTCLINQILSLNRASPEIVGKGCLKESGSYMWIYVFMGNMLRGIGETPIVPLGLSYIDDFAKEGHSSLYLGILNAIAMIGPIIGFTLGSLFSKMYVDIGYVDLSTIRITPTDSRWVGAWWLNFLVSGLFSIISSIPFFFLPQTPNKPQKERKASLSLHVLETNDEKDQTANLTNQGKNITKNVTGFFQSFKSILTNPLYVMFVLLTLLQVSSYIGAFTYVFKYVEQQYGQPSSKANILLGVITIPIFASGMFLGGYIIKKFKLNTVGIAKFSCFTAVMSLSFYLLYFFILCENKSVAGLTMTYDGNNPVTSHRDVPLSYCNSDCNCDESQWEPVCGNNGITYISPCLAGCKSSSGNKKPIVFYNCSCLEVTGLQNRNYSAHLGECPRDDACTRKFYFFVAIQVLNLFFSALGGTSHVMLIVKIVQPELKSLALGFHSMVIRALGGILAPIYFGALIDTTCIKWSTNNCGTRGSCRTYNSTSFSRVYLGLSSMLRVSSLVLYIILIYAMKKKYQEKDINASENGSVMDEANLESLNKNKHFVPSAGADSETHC

Structure (SMILES) | residual activity [1] [%] | residual activity [2] [%]
Cc1occc(=O)c1/C=C/O [2-METHYL-3-HYDROXYETHYLENEPYRAN-4-ONE] | 107 | 96.24
COc1cc(OC)c2c(=O)c(-c3ccccc3)c(C)oc2c1OC [2-METHYL-5,7,8-TRIMETHOXYISOFLAVONE] | 98.52 | 115.1
C=C1CCC(C2CC(=O)OC2=O)C(=O)CCC2C1CC2(C)C (stereo not drawn) [2-METHYLENE-5-(2,5-DIOXOTETRAHYDROFURAN-3-YL)-6-OXO--10,10-DIMETHYLBICYCLO[7: 2: 0]UNDECANE] | 47.58 | 29.82
CCCc1occc(=O)c1/C=C/O [2-PROPYL-3-HYDROXYETHYLENEPYRAN-4-ONE] | 129.3 | 128.5
COc1ccc(-c2cc(=O)c3ccccc3o2)cc1OC [3',4'-DIMETHOXYFLAVONE] | 129.7 | 187.6
CC1(O)CC2C(CC1O)C2(C)C (stereo not drawn) [3,4-DIHYDROXYCARANE] | 98.2 | 101
C=C[C@@H](C1=CC(=O)C(OC)=C(OC)C1=O)c1ccccc1 [3,4-DIMETHOXYDALBERGIONE] | 114.1 | 215.8
O=[N+]([O-])c1cc(O)c(O)c([N+](=O)[O-])c1 [3,5-DINITROCATECHOL (OR-486)] | 75.38 | 38.63
COc1c(Cl)ccc(Cl)c1C(=O)O [3,6 DICHLOROMETHOXYBENZOIC ACID] | 155.5 | 88.8
COc1ccc2oc(-c3ccccc3)c(OC)c(=O)c2c1 [3,6-DIMETHOXYFLAVONE] | 76.93 | 99.01
O=c1c(O)c(-c2ccccc2)oc2cc(O)ccc12 [3,7-DIHYDROXYFLAVONE] | 120.8 | 151.5
COc1ccc2c(=O)c(OC)c(-c3ccccc3)oc2c1 [3,7-DIMETHOXYFLAVONE] | 144.6 | 59.28
CC1(C)CC2C1CCC1(C)OC2(C)CCC1O (stereo not drawn) [3,7-EPOXYCARYOPHYLLAN-6-OL] | 80.05 | 57.88
CC12CCC3C(CC3(C)C)C(C)(CCC1=O)O2 (stereo not drawn) [3,7-EPOXYCARYOPHYLLAN-6-ONE] | 93.4 | 72.4
COC(=O)C[C@H]1C(C)(C)[C@H](O)[C@@H]2CC3=C4CC(O)O[C@@H](c5ccoc5)[C@@]4(C)CCC3[C@]1(C)C2=O (stereo partly drawn) [3,16-DIDEOXYMEXICANOLIDE-3alpha-DIOL] | 96.33 | 67.63
COC(=O)C[C@H]1C(C)(C)[C@@H](O)[C@@H]2CC3=C4CC(O)O[C@@H](c5ccoc5)[C@]4(C)CCC3[C@@]1(C)C2=O (stereo partly drawn) [3,16-DIDEOXYMEXICANOLIDE-3beta-DIOL] | 53.76 | 51.44
C=C1C(N)CC2CC1C2(C)C (stereo not drawn) [3-AMINO-beta-PINENE] | 104.4 | 92.27
NC(=O)c1cccc(N)c1 [3-AMINOBENZAMIDE] | 110.7 | 106.1
CC(=O)O[C@H]1C[C@@H](O)C(C)(C)[C@@H]2C[C@@H](OC(C)=O)[C@]3(C)[C@H](CC[C@@]4(C)[C@@H](c5ccoc5)OC(=O)[C@H]5O[C@@]534)[C@@]12C [3-DEACETYLKHIVORIN] | 88.69 | 94.07
COC(=O)C[C@H]1C(C)(C)[C@@H](O)[C@@H]2CC3=C4C=C(OC)O[C@@H](c5ccoc5)[C@]4(C)CCC3[C@@]1(C)C2=O (stereo partly drawn) [3-DEOXO-3beta-HYDROXYMEXICANOLIDE 16-ENOL ETHER] | 106.5 | 27.18

Structure (SMILES) | residual activity [1] [%] | residual activity [2] [%]
C=C1[C@H]2CC[C@@]3(C)[C@H](c4ccoc4)OC(=O)C[C@]13O[C@H]1C[C@H](O)C(C)(C)[C@H](CC(=O)OC)[C@]12C [3-DEOXY-3beta-HYDROXYANGOLENSIC ACID METHYL ESTER] | 59.13 | 50.95
COc1ccc2c(c1)OC[C@@H](Cc1ccc(OC)c(OC)c1)[C@@H]2O [3-DESHYDROXYSAPPANOL TRIMETHYL ETHER] | 104.1 | 100.6
COc1ccc(-c2oc3ccccc3c(=O)c2O)cc1OC [3-HYDROXY-3',4'-DIMETHOXYFLAVONE] | 106.3 | 119.6
O=c1oc2ccccc2cc1O [3-HYDROXYCOUMARIN] | 116.7 | 126.8
COc1cccc(O)c1O [3-METHOXYCATECHOL] | 107.5 | 98.75
Cc1ccc2cc3c(ccc4ccccc43)c3c2c1CC3 [3-METHYLCHOLANTHRENE] | 78.58 | 86.73
Cc1cc(O)c(C)c(O)c1C(=O)O [3-METHYLORSELLINIC ACID] | 114.8 | 116.2
Cn1c(=O)[nH]c(=O)c2[nH]cnc21 [3-METHYLXANTHINE] | 95.53 | 101.5
CC1(C)CC23C(=O)CCC(O)C2(C)CCC13 (stereo not drawn) [3-NOR-3-OXOPANASINSAN-6-OL] | 112.2 | 100.8
C[C@@H]1CC[C@@]23CCC4(C)[C@@](C=CC5[C@@]6(C)CCC(=O)C(C)(C)C6CC[C@]54C)(OC2=O)C3[C@H]1C (stereo partly drawn) [3-OXOURSAN (28-13)OLIDE] | 96.4 | 105.6
CC1/C(=N/O)C[C@@H]2C[C@H]1C2(C)C (stereo partly drawn) [3-PINANONE OXIME] | 123 | 95.73
CC(=O)c1ccc(O)c(CC=C(C)C)c1 [3-PRENYL-4-HYDROXYACETOPHENONE] | 99.32 | 93.69
C[C@]12CC[C@@H](O)C[C@H]1CCc1ccccc12 [3alpha-HYDROXY-4,4-BISNOR-8,11,13-PODOCARPATRIENE] | 100.9 | 77.88
CC(=O)O[C@H]1CC[C@]2(C)C(C[C@H](OC(C)=O)[C@]3(C)C4=CC(=O)OC(c5ccoc5)[C@@]4(C)CCC23)C1(C)C (stereo partly drawn) [3beta,7beta-DIACETOXYDEOXODEACETOXYDEOXYDIHYDROGEDUNIN] | 67.84 | 51.92
CC(=O)O[C@H]1CC[C@]2(C)C3=CC(=O)[C@@]4(C)C(C[C@@H]5OC6(OCC(C)CC6Br)[C@@H](C)[C@@H]54)C3CC[C@H]2C1 (stereo partly drawn) [3beta-ACETOXY-23-BROMO-ISOALLOSPIROST-9 (11)-ENE-12-ONE] | 96.22 | 102.6
COc1cc([C@@H]2c3cc4c(cc3[C@@H](O)[C@H]3COC(=O)[C@H]23)OCO4)cc(OC)c1O [4'-DEMETHYLEPIPODOPHYLLOTOXIN] | 69.62 | 42.52
O=C(/C=C/c1ccccc1)c1ccc(O)cc1 [4'-HYDROXYCHALCONE] | 130.5 | 132.2
COc1ccc(C(=O)/C=C/c2ccccc2)cc1 [4'-METHOXYCHALCONE] | 93.51 | 100.4
C=CC(C1=CC(=O)C(OC)=CC1=O)c1ccc(OC)cc1 (stereo not drawn) [4,4'-DIMETHOXYDALBERGIONE] | 101.4 | 116.4
